In patent US11279708B2, “Amidino- and amino-rocaglates as novel translation inhibitors and anticancer agents” (priority 2019, dated 2022):

Tests used:
[1] = system: cap-dependent translation; assay: in vitro translation of (AG)10- and (UC)10-FF/HCV/Ren mRNA reporters in Krebs-2 extracts; format: biochemical; settings: cap-proximal (AG)10 or (UC)10
Experimental: Rocaglates show differing mRNA targeting spectra in translation assays. The in vitro experiments described above investigating the rocaglate-mediated inhibition of cap-dependent translation were performed at a fixed rocaglate concentration (2 μM) using a generic bicistronic mRNA reporter in Krebs-2 cell-free translation extracts (FIG. 19C). To better assess the consequences of eIF4A:polypurine clamping on the initiation process, we designed a series of bicistronic reporters harboring cap-proximal polypurine tracks of varying lengths in their 5′ leader region (FIG. 22A). […] We reasoned that these reporters would provide a sensitized readout for rocaglate-induce clamping of eIF4A at this location.
We next tested the response of mRNA reporters containing cap-proximal (AG)10 or (UC)10 sequences (FIG. 22A). […] The difference in activity observed between CR-1-31-B (23) and silvestrol 1 was not restricted to cap-proximal polypurine tracks, but also observed with reporters where the polypurine/polypyrimidine tracks were situated 15 nt downstream from the cap (FIGS. 24A and 24B).
(§1) In Vitro Translation Assays. In vitro translation assays performed in Krebs-2 cell extracts were supplemented with 5 mM MgCl2, 30 mM Tris-HCl (pH 7.5), 1.5 mM ATP, 0.1 mM GTP, 0.6 mM CTP, 10 mM dipotassium creatine phosphate, 80 μg/mL creatine kinase, and 0.04 mM amino acids. The specified mRNA reporters were added to each reaction at a final concentration of 10 ng/μL. The translation reactions were incubated with or without compound for 60 minutes at 30° C. prior to the measurement of luciferase activities.
FIGS. 23A-23C. The presence of polypurines bases in mRNA 5′ leader regions are not universal predictors of rocaglate-responsiveness. FIG. 23A. Schematic diagram of FF/HCV/Ren mRNA reporters containing cap-proximal (AG) or (UC) dinucleotide repeats. 23B. Firefly and renilla luciferase activity in response to the indicated CR-1-31-B (23) concentrations (relative to DMSO controls) in Krebs-2 extracts programmed with 4 ng/uL of the indicated mRNAs. n=3±SD. 23C. Dose response of the indicated compounds in Krebs-2 extracts programmed with 4 ng/μL of the indicated mRNAs. n=3± SD.
FIG. 23. Dose-response of (AG)10- and (UC)10-FF/HCV/Ren mRNAs to CMLD011167, hippuristanol and pateamine A in vitro. Firefly and renilla luciferase activity in response to the indicated compound concentrations (relative to DMSO controls) in Krebs-2 extracts programmed with 4 ng/μL of the indicated mRNAs. n=3± SD.

[2] = system: eIF4A-dependent translation; assay: in vitro translation assay, bicistronic FF/HCV/Ren reporter mRNA in Krebs-2 extracts; format: biochemical; settings: for IC50: bicistronic FF/HCV/Ren mRNA, FIG. 14/15, read-out: IC50, inhibition of cap-dependent translation (FF relative to REN); for inhibition of cap-dependent translation in vitro (in words): screen at 2 μM compound
Experimental: Structure-Activity Relationships. With a number of amidino-rocaglates and amino-rocaglates in hand, we evaluated their inhibition of eIF4A-dependent translation using an in vitro assay as depicted in FIG. 14, where a bicistronic reporter mRNA was designed for translation in Krebs-2 extracts. In FIG. 14 the following description applies (a) IC50 was determined from fitted sigmoid curves; […] indicates the concentration of compound that inhibits cap-dependent translation by 50%, which was normalized by cap-independent translation. For its determination, the bicistronic reporter FF/HCV/Ren mRNA was used to produce Firefly luciferase (cap-dependent) and Renilla luciferase (cap-independent) in Krebs-2 extracts in the presence of indicated compounds at various concentrations. In particular, translation of Firefly luciferase (FF) is cap-dependent and depends on eIF4A activity; in contrast, translation of Renilla luciferase (REN) utilizes the HCV internal ribosome entry site (IRES) which functions independently of eIF4A. IC50's were determined by the inhibition of FF relative to REN obtained in the presence of compound relative to vehicle controls and normalized to REN as an internal control. […] In accordance with the eIF4A-RNA-rocaglamide (2) co-crystallographic analysis (FIG. 4), the amide carbonyl of 2 interacts with Gln195 of eIF4A as a H-bond acceptor, while the tertiary hydroxyl of 2 serves as a H-bond donor to an RNA base. […] To further verify the hypothesis, amidino-rocaglates (pKa of N—H˜26.7-30.7 in DMSO, strong H-bond donors) and amino-rocaglates (pKa of N—H˜36 to 44 in DMSO, weak H-bond donors) were next evaluated. […] Conversely, benzyl amidine 9e had IC50=60 nM, whereas the methylene tether may allow conformational adjustment to avoid rigid repulsion in the binding pocket.
The rocaglate collection was also tested in in vitro translation assays using cell-free extracts with a previously described bicistronic mRNA containing the HCV IRES, which is not dependent on eIF4A activity and served as an internal control (FIG. 19C).
as §1
FIGS. 19A-19C. Rocaglate activity profiling. 19A. Assessing eIF4A1:poly r(AG)8 (SEQ ID NO: 2) RNA binding by FP in the presence of 10 μM rocaglate. Values are expressed relative to vehicle controls and data is rank ordered. n=3±SD. 19B. The change in polarization obtained with eIF4A1:poly r(AG)8 (SEQ ID NO: 2) and eIF4A2:poly r(AG)8 (SEQ ID NO: 2) RNA. Pearson r=0.814; p<0.0001. 19C. Inhibition of cap-dependent translation by rocaglates was measured using the indicated mRNA bicistronic reporter (4 ng/ul) in Krebs-2 extracts at a final compound concentration of 2 μM. n=3±SD.
FIG. 35A-35E are plots showing dose-response curve of FF-HCV-Ren mRNA translation in Krebs extracts with IC50s shown for inhibition of cap-dependent protein synthesis. Values are plotted relative to DMSO controls. n=2 technical replicates performed in duplicate.

## COC(=O)[C@@H]1[C@@H](c2ccccc2)[C@]2(c3ccc(OC)cc3)Oc3cc(OC)cc(OC)c3[C@@]23N=C(C)N[C@@]13O [9b]
[1]
  inhibition of (AG)10 versus (UC)10 reporter in vitro (in words): equally inhibited translation of both (AG)10 and (UC)10 reporters
[2]
  IC50: 189 nM
  inhibition of cap-dependent translation in vitro (in words): comparable potency to SDS-1-021

## CONC(=O)[C@H]1[C@@H](O)[C@@]2(O)c3c(OC)cc(OC)cc3O[C@@]2(c2ccc(OC)cc2)[C@@H]1c1ccccc1 [CR-1-31-B]
[1]
  inhibition of (AG)10 versus (UC)10 reporter in vitro (in words): inhibited cap-dependent translation (FLuc) from only the (AG)10-containing mRNA
[2]
  IC50: 272 nM

## COC(=O)[C@H]1[C@@H](O)[C@@]2(O)c3c(OC)cc(O[C@@H]4O[C@@H]([C@H](O)CO)CO[C@H]4OC)cc3O[C@@]2(c2ccc(OC)cc2)[C@@H]1c1ccccc1 [silvestrol]
[1]
  inhibition of (AG)10 versus (UC)10 reporter in vitro (in words): equally inhibited both mRNA reporters
[2]
  inhibition of cap-dependent translation in vitro (in words): potently inhibit cap-dependent translation

## COc1ccc([C@@]23Oc4cc(OC)cc(OC)c4[C@]2(O)[C@H](O)[C@H](C(=O)N(C)C)[C@H]3c2ccccc2)cc1 [RocA, rocaglamide A]
[1]
  inhibition of (AG)10 versus (UC)10 reporter in vitro (in words): inhibited cap-dependent translation (FLuc) from only the (AG)10-containing mRNA
